{"source": "patent US20040219217A1", "about": "“Conjugates of polysaccharide polymers of natural origin” (priority 2001, published 2004)", "key": {"mite population": {"test_system": "mite population", "conditions": "dust collected after two days, vs underivatized fabrics", "experimental": "8. Performance of anti-mite fabrics.\nCotton fibres conjugated to acaricides (as set out in the chemical experimental part above) were used for obtaining fabrics (woven and non-woven) used in turn for the manufacture of household articles (curtains, carpet floor and the like) placed in living environments. In particular, living environments (flats, apartments and houses) at the countryside at locations particularly exposed to dust and ventilation were chosen. Moreover, the tests were conducted during spring, which is the period with the highest mite contamination risk.\nAfter two days of total exposure of the living environments to the open air, at the point in time zero, the dust was removed through vacuum cleaning and the presence and the status of the mite population contained therein was subjected to microscopic examination. Thereafter, some of the living environments, after appropriate randomization, were equipped with the fabrics according to the invention obtained from fibres conjugated to acaricides, thus making up a first test group. On the other hand, the remaining living environments were equipped with fabrics from customary cotton thereby making up a second test group as a control for the development of the mite population.\nAfter another two days, the dust from both of the test groups was collected and the overall number of mites as well as the number of living mites was established."}, "[1]": {"test": "in vitro cleavage of the conjugation in artificial sweat", "assay_type": "physicochemical", "conditions": "18 h hydrolysis, skin's usual pH, 37° C.", "experimental": "In the following table 2, different chemical conjugations contemplated by the present invention have been tested for in vitro cleavage under conditions simulating the topical application of the polysaccharide polymers of the present invention to the skin. In particular, for evaluating the biodegradability of a given chemical conjugation established between cotton and an active substance, the conjugate is subjected to hydrolysis at the skin's usual pH at 37° C. under mild agitation in the presence of an enzymatic mixture known as “artificial sweat”. After the pre-established time period of contact with the hydrolysis medium, the same was analyzed for the active substances or their fragments contained therein. The examples as listed below were chosen on the following grounds: […]"}, "[2]": {"test_system": "experimental sclerosis in femoral veins", "test": "experimental sclerosis in rabbits' femoral veins", "assay_type": "in vivo", "conditions": "rabbit femoral vein, carbon tetrachloride as sclerotizing agent, gauze bandage, after ten days", "experimental": "4. Influence of the application of derivatized cotton fibres on the entity of experimental sclerosis in rabbits' femoral veins.\nAfter a suitable depilation a rabbit's femoral vein is closed for a length of about 5 cm by means of suture stitches downstream and upstream.\nWithin the separated area 0.05 ml of carbon tetrachloride in 10% solution (Fluka 87031) is added as sclerotizing agent.\nThe area is suitably bandaged with normal cotton gauzes (control) or derivatized gauzes so that they perfectly adhere to the treated area.\nAfter ten days the vein fragments undergoing stasis are taken and controlled with a microscope to check the parietal state and the consistency of the sclerotizing deposits.\nIt is thus possible to observe how the application in the area receiving layers of derivatized cotton gauzes with: […]"}, "[3]": {"test_system": "granuloma from cotton pellets", "test": "induction of granuloma from cotton pellets", "assay_type": "in vivo", "conditions": "rats, subcutaneous cotton pellet 1 g, after fifteen days, vs simple cotton", "from_the_text": "3. Influence of fibre derivatized with anti-inflammatories or with immunostimulating agents on the phlogogenic process.\nThe experiments have been carried out on rats through the test of induction of granuloma from “cotton pellets”.\nAccording to this test cotton pellets having a pre-established weight (1 g) and shape are introduced into the subcutaneous region of the subaxillary area of the animals using a cannula which can pierce the skin and the sub-skin (the scar is closed again with a suture stitch).\nAround the cotton pellet a “granuloma” collagen deposit is formed, whose entity is proportional to the phlogogenic process.\nAfter fifteen days from the operation the granuloma is taken from the animal under anesthesia and it is weighed to determine its entity.\nIn the present case the cotton used as a base for the implantation of the granuloma consists of: […]"}, "Candida albicans": {"test_system": "Candida albicans", "test": "plate culture growth under derivatized cotton gauze", "assay_type": "cell-based", "conditions": "C. albicans, 24 hours at 37° C., vs normal growth conditions", "from_the_text": "(§1) 2. Evaluation of the influence of cotton derivatized with germicides, with anti-bacterial or anti-fungi agents in the development and amount of microorganic flora.\n(§2) The influence of suitably derivatized cotton fibre on the development of microorganic flora has been determined “in vitro” on plate growing cultures of various micro-organisms: Candida albicans, Escherichia coli, Staphylococcus aureus isolated and characterized by contaminated organic material.\n(§3) To this purpose growth selective mediums are prepared (sabouraud agar for fungi and nutrient agar for bacteria) with which Petri dishes are prepared.\n(§4) On the medium surface the microorganism culture is applied by deposition of one ml of a suspension of said microorganism containing 10^9 microorganisms, lightly agitating so as to cover the whole plate surface.\n(§5) A cotton gauze obtained from fibre derivatized with the various substances taken into consideration is then applied onto the surface; the whole is then placed in a thermostat at 37° C.\n(§6) After 24 hours the gauze is removed and the developed colonies are compared with plates in normal growth conditions.\n(§7) The reduction in percentage of the growth in the plates characterized by conjugated gauze is evaluated with respect to normal growth conditions."}, "Escherichia coli": {"test_system": "Escherichia coli", "test": "plate culture growth under derivatized cotton gauze", "assay_type": "cell-based", "conditions": "E. coli, 24 hours at 37° C., vs normal growth conditions", "from_the_text": "as §1, §2, §3, §4, §5, §6, §7"}, "Staphylococcus aureus": {"test_system": "Staphylococcus aureus", "test": "plate culture growth under derivatized cotton gauze", "assay_type": "cell-based", "conditions": "S. aureus, 24 hours at 37° C., vs normal growth conditions", "from_the_text": "as §1, §2, §3, §4, §5, §6, §7"}, "UV-induced edema in skin": {"test_system": "UV-induced edema in skin", "test": "UV-induced edema (erythema) in rats' skin", "assay_type": "in vivo", "conditions": "daily application, vs animals with no application", "experimental": "6. Influence of the application of derivatized cotton fibres on UV-induced edema in rats' skin.\nAdult rats are depilated on their backs and are then exposed to UV radiations until a consistent skin edema forms.\nThe exposition is carried out only on pre-established circular areas using suitable pierced masks.\nThen normal cotton gauzes (controls) or gauzes obtained from fibre derivatized with a medicament are applied with a good adherence onto the inflamed areas. Simultaneously another group of animals is tested to check the effectiveness of the application of the same medicaments in form of 5% gel.\nThe regression of the erythema defined as the reduction of the entity and surface of the reddening area is controlled daily with respect to control animals with no application, and immediately afterwards the medicament is applied again in the various forms.\nOn the 5th day the average extension of the erythema surface is measured and its reduction in percentage with respect to the animals with no application is calculated."}, "[4]": {"test_system": "subcutaneous lipid deposit", "test": "experimental subcutaneous lipid deposit in rats", "assay_type": "in vivo", "conditions": "abdominal tissue, gauze applied from the eighth day, after thirty days", "experimental": "7. Influence of the application of derivatized cotton fibres on experimental subcutaneous lipid deposit in rats.\nThe experiments were carried out on adult rats by injecting into their subcutaneous abdominal areas a lipid fraction rich in cholesterol (Sigma L 4646), and daily repeating the administrations until a stabilized subcutaneous lipid deposit is obtained; the fat mixture is injected in six adjacent sites in a volume of 0.2 ml/location for 7 days.\nThen, from the eighth day on, cotton gauzes obtained from fibre derivatized with lipase (example II.F. above) are applied onto said areas in a perfectly adhering way.\nAfter thirty days the animals are killed and the treated abdomen areas is taken. Aliquots of said area of about 2 g, precisely weighed, are homogenized in a Waring blender and the lipid content is extracted by adding aliquots of ethyl ether under strong stirring: three extractions with 20 ml of solvent each.\nThe ether fractions are mixed and concentrated in a rotary evaporator until dryness.\nThe concentration/g of extracted lipid tissue is determined by weighing said extracts."}}, "data": [{"substance": "cotton-CH═N-polylys-(NH—CO-PABA-benzylbenzoate)n [III.B.2.2.1.]", "values": [{"measurement": "Decrease (%) of total living mite population", "setting": "mite population", "result": 94, "unit": "%"}]}, {"substance": "cotton-S—S—CH2—CH(COOH)—N═CH-heparin", "values": [{"measurement": "% of released active principle", "setting": "[1]", "result": 50.4, "unit": "%"}, {"measurement": "tissue sclerotic state", "setting": "[2]", "result": "reduce the tissue sclerotic state to a consistent extent"}]}, {"substance": "cotton-S-S-cys-polylys-naproxen", "values": [{"measurement": "% reduction in the weight of the granuloma", "setting": "[3]", "result": 64.0, "unit": "%"}]}, {"substance": "cotton-CH═N-gramicidin", "values": [{"measurement": "% reduction in the development of colonies", "setting": "Candida albicans", "result": 65, "unit": "%"}, {"measurement": "% reduction in the development of colonies", "setting": "Escherichia coli", "result": 80, "unit": "%"}, {"measurement": "% reduction in the development of colonies", "setting": "Staphylococcus aureus", "result": 90, "unit": "%"}]}, {"substance": "cotton-S-S-cys-PABA-hydrocortisone", "values": [{"measurement": "% reduction in the weight of the granuloma", "setting": "[3]", "result": 55.0, "unit": "%"}, {"measurement": "% reduction of the erythema extension with respect to controls on the 5th day after the induction", "setting": "UV-induced edema in skin", "result": 60.0, "unit": "%"}]}, {"substance": "cotton-CH═N-lys-NH—CO-PABA-benzylbenzoate [III.B.2.1.1.]", "values": [{"measurement": "Decrease (%) of total living mite population", "setting": "mite population", "result": 58, "unit": "%"}]}, {"substance": "cotton-CH2—NH-lys-NH—CH2-Ph-OH", "values": [{"measurement": "% of released active principle", "setting": "[1]", "result": 1.2, "unit": "%"}, {"measurement": "% reduction in the development of colonies", "setting": "Candida albicans", "result": 75, "unit": "%"}, {"measurement": "% reduction in the development of colonies", "setting": "Escherichia coli", "result": 85, "unit": "%"}, {"measurement": "% reduction in the development of colonies", "setting": "Staphylococcus aureus", "result": 85, "unit": "%"}]}, {"substance": "cotton-S-S-cys-polylys-(PABA-hydrocortisone)n", "values": [{"measurement": "% reduction in the weight of the granuloma", "setting": "[3]", "result": 90.0, "unit": "%"}, {"measurement": "% reduction of the erythema extension with respect to controls on the 5th day after the induction", "setting": "UV-induced edema in skin", "result": 95, "unit": "%"}]}, {"substance": "cotton-CH═N-procaine [Cotton/procaine]", "values": [{"measurement": "% of released active principle", "setting": "[1]", "result": 76.3, "unit": "%"}]}, {"substance": "cotton-CH═N-bacitracin", "values": [{"measurement": "% reduction in the development of colonies", "setting": "Candida albicans", "result": 65, "unit": "%"}, {"measurement": "% reduction in the development of colonies", "setting": "Escherichia coli", "result": 75, "unit": "%"}, {"measurement": "% reduction in the development of colonies", "setting": "Staphylococcus aureus", "result": 95, "unit": "%"}]}, {"substance": "cotton-CH2—NH-lys-NH—CO-PABA-benzyl benzoate [III.B.2.1.2.]", "values": [{"measurement": "Decrease (%) of total living mite population", "setting": "mite population", "result": 59, "unit": "%"}]}, {"substance": "cotton-S—S—CH2—CH(NH—CO-lipase)-CO—NH-lipase", "values": [{"measurement": "lower lipid content than the controls", "setting": "[4]", "result": 45, "unit": "%"}]}, {"substance": "cotton-S—S-IgG [Cotton/IgG]", "values": [{"measurement": "% of released active principle", "setting": "[1]", "result": 40.8, "unit": "%"}]}, {"substance": "cotton-CH2—NH-polylys-(NH—CO-PABA-benzylbenzoate)n [III.B.2.2.2.]", "values": [{"measurement": "Decrease (%) of total living mite population", "setting": "mite population", "result": 100, "unit": "%"}]}, {"substance": "cotton-S—S—CH2—CH(COOH)—NH—CO-naproxen", "values": [{"measurement": "% reduction in the weight of the granuloma", "setting": "[3]", "result": 30.0, "unit": "%"}]}]}
